Experiments:
[1] = test system: mononuclear cells isolated from peripheral blood; assay: LPS-induced IL-1β, IL-6 and GM-CSF release in mononuclear cells isolated from healthy and asthmatic patients; format: cell-based, human; details: single agent
Description: Mononuclear cells were isolated from peripheral blood of healthy volunteers, and asthmatic patients. Briefly, PBMC were isolated from peripheral venous blood by standard laboratory procedures. Peripheral venous blood was mixed with dextran 500 at 3% (in 0.9% saline) in a proportion of 2:1. This mixture was incubated at room temperature for 30 min until sedimentation of erythrocytes. The upper phase was carefully collected and layered on Ficoll-Paque Histopaque 1077 density gradient in a proportion of 3:1. (PBMC) layer was isolated and quantified.
For the single agent study, isolated mononuclear cells were incubated with Compound A, or vehicle for 30 minutes before incubation with or without LPS for 6 hours in standard cell culture conditions (37° C. and 5% CO2). For the combination experiments, the same procedure was followed except that cells were incubated with Compound A (1 μM) in combination with fluticasone (0.1 nM). Supernatants were collected to measure IL-1β, IL-6, and GM-CSF. Data was analysed using Graphpad Prism.

U937 cells = assay: H2O2 induced corticosteroid insensitivity in U937 cells (TNF-α induced IL-8, ELISA); format: cell-based; details: H2O2 treated U937 macrophages; addition of 1 μM Compound A; FIG. 1B
Description: U937 cells were maintained in RPMI-1640 with 15 mM glutamine. 6×10^6 cells were taken in a T-25 flask with 12 ml of fresh medium and treated with 1 μM of Compound A and incubated at 37° C. and 5% CO2 for 30 min.
H2O2 was added at a final concentration of 200 μM to the above cells and incubated for 2 h.
Cells were pelleted and resuspended in serum free media and seeded on to a 96-well plate at 0.15×10^6 cells per well in 100 μl.
50 μl of 3× dexamethasone at desired concentrations was added and incubated for 45 min
50 μl of 4× concentration of TNF-α was added such that the final concentration was 10 ng/ml, to induce IL-8 and incubated for 18 h.
Supernatant was collected and IL-8 was estimated by ELISA.
IL-8 strips were plated with fresh or thawed supernatants and incubated at room temperature for 2 h or overnight at 4° C.
Contents were discarded and strips were washed with 200 μl of wash buffer per well for 15 s for a total of 5 times.
Strips were blotted dry and 100 μl per well of 1× detection antibody was added and incubated at room temperature for 1 h.
Strips were blotted dry and 100 μl per well of 1× Avidin-HRP antibody was added and incubated at room temperature for 30 min.
Contents were discarded and the strips were washed with 200 μl per well of wash buffer for 15 s for a total of 5 times. […]
Absorbance was read on a plate reader at A450 nm and A570 nm.

[2] = asthmatic patients, LPS stimulus 6 hours

- reduction in IC50 of dexamethasone for IL-8 release (U937 cells): 3 fold
Compound: Cc1ccccc1C(=O)Nc1ccc(-n2nc(C(F)(F)F)cc2C2CC2)nc1 [Compound A, N-{6-[5-cyclopropyl-3-(trifluoromethyl)-1H-pyrazol-1-yl]pyridin-3-yl}-2-methyl benzamide]
- percentage maximum effect (% Emax), GM-CSF release [1, 2]: 80±16.4%
- percentage maximum effect (% Emax), IL1β release [1, 2]: 68.9±23.7%
- percentage maximum effect (% Emax), IL6 release [1, 2]: 52.5±30.3%
- % Emax for IL1β compared with asthmatic cells ([1]; healthy donors, LPS stimulus): higher % Emax

Source: patent US20220040162A1, “COMPOSITIONS COMPRISING A CRAC INHIBITOR AND A CORTICOSTEROID AND METHODS OF USE THEREOF” (Rhizen Pharmaceuticals AG, priority 2018, published 2022)
